From paper PMC7193450 (Asian Journal of Pharmaceutical Sciences, 2018) come the findings set out here.

One data set concerns rat kidney slices. As to the kind of experiment: In vitro uptake in rat kidney slices. Format: in vitro ADME. As to conditions: for Effect on the uptake of cilastatin in rat kidney slices / Effect on the uptake of imipenem in rat kidney slices: inhibitor 200 µM; for Effect on the uptake of cilastatin in rat kidney slices: cilastatin 100 µM; for Effect on the uptake of imipenem in rat kidney slices: imipenem 100 µM; for Uptake in rat kidney slices at 37 °C compared with 4 °C: 100 µM.

For another data set, the target named is T1, OAT3 (Homo sapiens, UniProt Q8TCC7).
T1 sequence (Q8TCC7 1-542): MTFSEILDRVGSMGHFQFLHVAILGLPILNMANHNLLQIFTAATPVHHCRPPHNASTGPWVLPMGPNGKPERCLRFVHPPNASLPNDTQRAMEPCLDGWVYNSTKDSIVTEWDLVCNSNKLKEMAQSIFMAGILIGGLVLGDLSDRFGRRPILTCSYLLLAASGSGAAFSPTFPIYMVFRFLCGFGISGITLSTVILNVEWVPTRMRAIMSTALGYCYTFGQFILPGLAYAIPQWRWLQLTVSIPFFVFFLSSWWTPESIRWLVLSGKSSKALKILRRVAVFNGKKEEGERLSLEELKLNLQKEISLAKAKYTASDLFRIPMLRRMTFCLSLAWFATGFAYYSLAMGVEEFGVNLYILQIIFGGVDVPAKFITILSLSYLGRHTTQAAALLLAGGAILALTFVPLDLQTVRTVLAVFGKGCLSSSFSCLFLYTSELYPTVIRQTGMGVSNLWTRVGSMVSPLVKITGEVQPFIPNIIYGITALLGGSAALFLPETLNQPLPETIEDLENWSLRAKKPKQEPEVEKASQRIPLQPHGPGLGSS
Nature of the data set: In vitro transporter uptake assay in hOAT3-HEK293 cells. The class given is in vitro ADME. As to conditions: human, HEK293 cells transfected with human OAT3 (hOAT3-HEK293), pH 7.4.

For another data set, the target named is T2, human OAT3 (hOAT3) (Homo sapiens, UniProt Q8TCC7).
T2 sequence (Q8TCC7 1-542): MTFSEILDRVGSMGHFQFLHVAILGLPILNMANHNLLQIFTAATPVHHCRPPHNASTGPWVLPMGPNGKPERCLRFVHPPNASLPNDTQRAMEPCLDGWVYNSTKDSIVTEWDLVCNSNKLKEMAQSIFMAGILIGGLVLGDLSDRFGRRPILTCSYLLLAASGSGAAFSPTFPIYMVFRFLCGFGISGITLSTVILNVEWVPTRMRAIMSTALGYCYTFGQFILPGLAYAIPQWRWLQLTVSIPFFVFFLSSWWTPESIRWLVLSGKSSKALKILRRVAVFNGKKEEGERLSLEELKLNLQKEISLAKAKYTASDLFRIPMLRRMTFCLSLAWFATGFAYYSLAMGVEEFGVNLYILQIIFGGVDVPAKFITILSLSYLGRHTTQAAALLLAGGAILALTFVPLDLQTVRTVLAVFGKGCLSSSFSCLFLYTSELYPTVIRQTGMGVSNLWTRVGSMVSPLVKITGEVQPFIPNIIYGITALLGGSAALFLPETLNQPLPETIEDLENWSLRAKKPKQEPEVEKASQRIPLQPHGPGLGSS
Described as above. The class given is in vitro ADME. Conditions: for Uptake in hOAT3-HEK293 cells compared with mock cells: 100 µM.

Another data set has as its target T3, OAT1 (Homo sapiens, UniProt Q4U2R8).
T3 sequence (Q4U2R8 1-563): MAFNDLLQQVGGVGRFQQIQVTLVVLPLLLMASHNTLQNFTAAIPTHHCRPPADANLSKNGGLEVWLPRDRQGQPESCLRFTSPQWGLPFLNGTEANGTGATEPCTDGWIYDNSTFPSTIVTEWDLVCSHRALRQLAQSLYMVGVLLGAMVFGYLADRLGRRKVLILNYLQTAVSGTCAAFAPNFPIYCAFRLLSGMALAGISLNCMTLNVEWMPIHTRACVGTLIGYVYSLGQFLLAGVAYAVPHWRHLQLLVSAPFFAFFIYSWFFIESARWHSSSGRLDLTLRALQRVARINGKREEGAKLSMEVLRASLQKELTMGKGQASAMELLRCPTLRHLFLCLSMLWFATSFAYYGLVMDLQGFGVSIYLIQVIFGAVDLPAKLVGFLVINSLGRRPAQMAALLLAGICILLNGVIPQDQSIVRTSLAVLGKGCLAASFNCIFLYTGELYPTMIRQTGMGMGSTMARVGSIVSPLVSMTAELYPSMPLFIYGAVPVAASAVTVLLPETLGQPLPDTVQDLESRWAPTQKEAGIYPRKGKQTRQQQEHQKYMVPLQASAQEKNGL
As to the kind of experiment: In vitro transporter uptake assay in hOAT1-HEK293 cells. As to conditions: human, pH 7.4.

The target in a further data set is T4, human OAT1 (hOAT1) (Homo sapiens, UniProt Q4U2R8).
T4 sequence (Q4U2R8 1-563): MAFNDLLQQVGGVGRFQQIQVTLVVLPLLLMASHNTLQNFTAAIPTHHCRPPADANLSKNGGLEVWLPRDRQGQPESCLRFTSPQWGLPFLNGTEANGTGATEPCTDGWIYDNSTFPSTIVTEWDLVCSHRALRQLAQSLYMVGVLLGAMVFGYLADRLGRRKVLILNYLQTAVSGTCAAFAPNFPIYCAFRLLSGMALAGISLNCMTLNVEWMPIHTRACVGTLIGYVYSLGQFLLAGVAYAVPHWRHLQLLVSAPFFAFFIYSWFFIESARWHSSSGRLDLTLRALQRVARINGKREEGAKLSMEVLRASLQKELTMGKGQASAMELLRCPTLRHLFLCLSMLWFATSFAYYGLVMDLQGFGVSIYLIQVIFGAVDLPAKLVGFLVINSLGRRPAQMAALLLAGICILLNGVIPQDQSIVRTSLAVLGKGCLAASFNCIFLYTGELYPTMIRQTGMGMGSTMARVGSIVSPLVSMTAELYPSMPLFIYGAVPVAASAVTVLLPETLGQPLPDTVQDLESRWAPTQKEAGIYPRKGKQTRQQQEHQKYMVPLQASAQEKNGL
The data set is described as above.

Data set [1] in a line: Pharmacokinetic interaction in vivo in rats. Conditions: rat; for AUC(0-inf) / C0 / clearance / half-life: Wistar, plasma, iv; for AUC(0-inf) / C0 / clearance / half-life / Cumulative urinary excretion over 8 h, compared with alone group: 45 mg/kg; for AUC(0-inf): AUC0→∞; for clearance: CLP; for half-life: T1/2β; for Cumulative urinary excretion over 8 h, compared with alone group: with probenecid 100 mg/kg.

Substrate in data set [2]: CC1(C)C[C@@H]1C(=O)N/C(=C\CCCCSC[C@H](N)C(=O)O)C(=O)O
Nature of the data set: cells, lysate or membranes named. Conditions: other: hOAT3-HEK293 cells, alone, 1 min uptake, 0–2000 µM; pH 7.4; 37.0 °C.

Where [3] appears, read: imipenem 100 µM, cilastatin 0–2000 µM, Eadie–Hofstee plot.
Setting [4] is: of imipenem, i.v., imipenem + cilastatin, 45 mg/kg for both.
Setting [5] is: C0, rat, single administration (alone).
[6] abbreviates: of cilastatin, i.v., cilastatin + imipenem, 45 mg/kg for both.

As for `CCCN(CCC)S(=O)(=O)c1ccc(C(=O)O)cc1` [probenecid, Probenecid], in the data set on rat kidney slices, the “Effect on the uptake of cilastatin in rat kidney slices” value (“Effect on the uptake of cilastatin” below) is “inhibited” and the “Effect on the uptake of imipenem in rat kidney slices” value (from here on “Effect on the uptake of imipenem”) is recorded as “inhibited”.
One may read the Km as the concentration of substrate that gives half-maximal velocity. Usually AUC(0-inf) stands for total exposure, with the tail of the curve extrapolated. Broadly, the clearance is the rate of elimination divided by the concentration. In general, half-life refers to the time in which the quantity being followed falls by half. As to `C[C@@H](O)[C@H]1C(=O)N2C(C(=O)O)=C(SCCN=CN)C[C@H]12` [Imipenem], the “Uptake in rat kidney slices at 37 °C compared with 4 °C” value with rat kidney slices is reported as “significantly higher”. For the same molecule, the values for the Km at 1 min on OAT3 and at OAT1 were 759 ± 62 µM and 631 ± 30 µM, respectively. The “Uptake in hOAT3-HEK293 cells compared with mock cells” value at human OAT3 (hOAT3) is “significantly higher”. In addition, the Vmax was determined as 0.329 ± 0.036 nmol/mg protein/min at human OAT3 (hOAT3) (hOAT3, alone); 0.329 ± 0.036 nmol/mg protein/1 min at human OAT3 (hOAT3) (hOAT3-HEK293 cells, alone, 1 min uptake, 0–2000 µM); 0.223 ± 0.011 nmol/mg protein/min on human OAT1 (hOAT1) (hOAT1, alone); 0.223 ± 0.011 nmol/mg protein/1 min at human OAT1 (hOAT1) (hOAT1-HEK293 cells, alone, 1 min uptake, 0–2000 µM). Further, on human OAT3 (hOAT3) (setting [3]), the “Inhibitory type on the uptake of cilastatin in hOAT3-HEK293 cells” value was “competitive”. The “Uptake in hOAT1-HEK293 cells compared with mock cells” value on human OAT1 (hOAT1) (100 µM) is reported as “significantly higher”. In addition, on human OAT1 (hOAT1) (setting [3]), the “Inhibitory type on the uptake of cilastatin in hOAT1-HEK293 cells” value was “competitive”. Also, the area under the curve AUC(0-inf) in data set [1] (setting [4]) is 92400 ng·h/mL; in data set [1] (single administration (alone)), 34800 ng·h/mL. In addition, the C0 in data set [1] (C0, of imipenem, i.v., imipenem + cilastatin, 45 mg/kg for both) was 187 ± 13.5 µg/mL; in data set [1] (setting [5]), 129 ± 2.6 µg/mL. Moreover, the clearance in data set [1] (setting [4]) stood at 8.1 ± 0.4 mL/min/kg; in data set [1] (single administration (alone)) it was 21.6 ± 0.4 mL/min/kg. Besides, the figures for the half-life in data set [1] (setting [4]) and in data set [1] (single administration (alone)) were 62 ± 1.4 min and 18.5 ± 2.8 min, respectively. For the same molecule, in data set [1] (i.v.), the “Cumulative urinary excretion over 8 h, compared with alone group” value was “significantly decreased”.
Regarding `CC[N+](CC)(CC)CC` [TEA, tetraethyl ammonium], in the data set on rat kidney slices, the “Effect on the uptake of cilastatin” value was “not TEA inhibited” and the “Effect on the uptake of imipenem” value is “not TEA inhibited”.
Turning to `CC1(C)C[C@@H]1C(=O)N/C(=C\CCCCSC[C@H](N)C(=O)O)C(=O)O` [Cilastatin], the “Uptake in rat kidney slices at 37 °C compared with 4 °C” value with rat kidney slices is listed as “significantly higher”. For the same molecule, the “Uptake in hOAT3-HEK293 cells compared with mock cells” value on human OAT3 (hOAT3) is given as “significantly higher”. Further, in data set [1] (setting [6]), the area under the curve AUC(0-inf) is 84700 ng·h/mL, the clearance was 8.9 ± 0.3 mL/min/kg and the half-life is 28.6 ± 4 min. In data set [1] (single administration (alone)), this molecule had an area under the curve AUC(0-inf) of 56500 ng·h/mL, a clearance of 13.3 ± 0.1 mL/min/kg and a half-life of 19.7 ± 0.8 min. For the same molecule, the C0 in data set [1] (C0, of cilastatin, i.v., cilastatin + imipenem, 45 mg/kg for both) came out at 175 ± 11.1 µg/mL. In data set [1] (setting [5]), the C0 amounted to 156 ± 3.6 µg/mL. In addition, the “Cumulative urinary excretion over 8 h, compared with alone group” value in data set [1] (i.v.) is “significantly decreased”. In addition, the “Cumulative urinary excretion of cilastatin, compared with cilastatin alone group” value in data set [1] (i.v., co-administered with imipenem, 45 mg/kg for both) is “decreased significantly”.
As to `Nc1ccc(C(=O)NCC(=O)O)cc1` [PAH, p-aminohippurate], in the data set with rat kidney slices, the “Effect on the uptake of cilastatin” value is on record as “inhibited” and the “Effect on the uptake of imipenem” value was “inhibited”.
For the molecule `CC1(C)S[C@@H]2[C@H](NC(=O)Cc3ccccc3)C(=O)N2[C@H]1C(=O)O` [PCG, benzylpenicillin], in the data set on rat kidney slices, the “Effect on the uptake of cilastatin” value is “inhibited” and the “Effect on the uptake of imipenem” value is on record as “inhibited”. The “Effect on uptake of imipenem and cilastatin in hOAT3-HEK293 cells” value on human OAT3 (hOAT3) (PCG 200 µM, imipenem 100 µM, cilastatin 100 µM) is given as “significantly inhibited”.

B1: human OAT3 (hOAT3) (Homo sapiens) (protein)
chain: MTFSEILDRVGSMGHFQFLHVAILGLPILNMANHNLLQIFTAATPVHHCRPPHNASTGPWVLPMGPNGKPERCLRFVHPPNASLPNDTQRAMEPCLDGWVYNSTKDSIVTEWDLVCNSNKLKEMAQSIFMAGILIGGLVLGDLSDRFGRRPILTCSYLLLAASGSGAAFSPTFPIYMVFRFLCGFGISGITLSTVILNVEWVPTRMRAIMSTALGYCYTFGQFILPGLAYAIPQWRWLQLTVSIPFFVFFLSSWWTPESIRWLVLSGKSSKALKILRRVAVFNGKKEEGERLSLEELKLNLQKEISLAKAKYTASDLFRIPMLRRMTFCLSLAWFATGFAYYSLAMGVEEFGVNLYILQIIFGGVDVPAKFITILSLSYLGRHTTQAAALLLAGGAILALTFVPLDLQTVRTVLAVFGKGCLSSSFSCLFLYTSELYPTVIRQTGMGVSNLWTRVGSMVSPLVKITGEVQPFIPNIIYGITALLGGSAALFLPETLNQPLPETIEDLENWSLRAKKPKQEPEVEKASQRIPLQPHGPGLGSS
For B1, in data set [2], the Km came out at 238 ± 2 µM and the Vmax stood at 0.000751 µmol/min/mg.
